Among the data in patent US12479847B2 (DANA-FARBER CANCER INSTITUTE, INC., priority 2019, dated 2025) are remaining binding values, retold here.

What all share (assay): KINOMEscan (ScanMAX) kinase profiling
Common to all, as to type: binding

Assay [1] concerns the target T1, panel of 468 kinases (Homo sapiens, UniProt O14936).
T1 construct: purchased KINOMEscan (ScanMAX) service
T1 sequence (O14936 1-926): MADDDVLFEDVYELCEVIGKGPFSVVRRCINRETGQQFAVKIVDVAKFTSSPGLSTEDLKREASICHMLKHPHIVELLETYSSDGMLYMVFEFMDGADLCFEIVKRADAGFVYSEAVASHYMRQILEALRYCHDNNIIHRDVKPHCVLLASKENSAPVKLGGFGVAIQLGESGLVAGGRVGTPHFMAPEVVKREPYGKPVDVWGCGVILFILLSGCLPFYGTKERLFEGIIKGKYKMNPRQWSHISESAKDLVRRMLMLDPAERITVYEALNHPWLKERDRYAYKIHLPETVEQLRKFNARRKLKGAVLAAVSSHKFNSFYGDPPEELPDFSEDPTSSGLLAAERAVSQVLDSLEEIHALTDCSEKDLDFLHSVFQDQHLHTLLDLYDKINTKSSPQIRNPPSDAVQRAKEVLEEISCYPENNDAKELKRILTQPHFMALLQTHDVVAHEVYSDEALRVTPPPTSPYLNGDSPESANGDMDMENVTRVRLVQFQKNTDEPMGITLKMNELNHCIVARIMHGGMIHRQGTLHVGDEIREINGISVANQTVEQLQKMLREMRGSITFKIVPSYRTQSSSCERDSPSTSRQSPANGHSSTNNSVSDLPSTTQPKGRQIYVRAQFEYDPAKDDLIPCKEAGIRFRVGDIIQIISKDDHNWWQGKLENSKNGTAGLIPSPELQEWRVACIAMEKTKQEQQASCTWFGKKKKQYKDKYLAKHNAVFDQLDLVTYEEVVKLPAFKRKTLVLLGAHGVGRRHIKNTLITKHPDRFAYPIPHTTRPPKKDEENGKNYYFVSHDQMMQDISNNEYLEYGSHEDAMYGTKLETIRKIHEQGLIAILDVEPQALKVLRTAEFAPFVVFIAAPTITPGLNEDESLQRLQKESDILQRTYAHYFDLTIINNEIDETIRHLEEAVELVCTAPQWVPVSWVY
Conditions: CASK; 1 μM; read-out: % control.

Assay [2] deals with T2, panel of 468 kinases (Homo sapiens, UniProt P04629).
T2 construct: purchased KINOMEscan (ScanMAX) service
As to conditions: TRKA; 1 μM; read-out: % control.

Assay [3] has as its target T3, panel of 468 kinases (Homo sapiens, UniProt P0C1S8).
T3 construct: purchased KINOMEscan (ScanMAX) service
Conditions: WEE2; 1 μM; read-out: % control.

Assay [4] concerns the target T4, panel of 468 kinases (Homo sapiens, UniProt P22694).
T4 construct: purchased KINOMEscan (ScanMAX) service
As to conditions: PKAC-beta; 1 μM; read-out: % control.

Assay [5] concerns the target T5, panel of 468 kinases (Homo sapiens, UniProt P42336, E545A).
T5 construct: purchased KINOMEscan (ScanMAX) service
As to conditions: PIK3CA(E545A); 1 μM; read-out: % control.

Assay [6] deals with T6, panel of 468 kinases (Homo sapiens, UniProt P49336).
T6 construct: purchased KINOMEscan (ScanMAX) service
As to conditions: CDK8; 1 μM; read-out: % control.

Assay [7] deals with T7, panel of 468 kinases (Homo sapiens, UniProt P51956).
T7 construct: purchased KINOMEscan (ScanMAX) service
T7 sequence (P51956 1-506): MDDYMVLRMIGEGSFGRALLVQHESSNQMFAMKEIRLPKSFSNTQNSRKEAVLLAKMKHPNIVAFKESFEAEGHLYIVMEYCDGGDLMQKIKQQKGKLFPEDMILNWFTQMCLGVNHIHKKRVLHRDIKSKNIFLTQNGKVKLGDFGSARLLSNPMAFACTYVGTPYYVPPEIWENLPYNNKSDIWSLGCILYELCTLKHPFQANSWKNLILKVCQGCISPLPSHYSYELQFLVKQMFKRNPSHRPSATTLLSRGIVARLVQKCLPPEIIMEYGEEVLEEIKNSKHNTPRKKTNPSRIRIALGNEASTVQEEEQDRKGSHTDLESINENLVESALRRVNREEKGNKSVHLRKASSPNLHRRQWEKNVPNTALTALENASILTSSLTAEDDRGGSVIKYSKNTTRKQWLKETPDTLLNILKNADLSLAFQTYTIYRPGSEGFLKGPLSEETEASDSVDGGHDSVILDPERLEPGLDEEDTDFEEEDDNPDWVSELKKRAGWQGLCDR
As to conditions: NEK3; 1 μM; read-out: % control.

Assay [8] deals with T8, panel of 468 kinases (Homo sapiens, UniProt Q00532).
T8 construct: purchased KINOMEscan (ScanMAX) service
As to conditions: CDKL1; 1 μM; read-out: % control.

Assay [9] addresses T9, panel of 468 kinases (Homo sapiens, UniProt Q02750).
T9 construct: purchased KINOMEscan (ScanMAX) service
As to conditions: MEK1; 1 μM; read-out: % control.

For assay [10], the target named is T10, panel of 468 kinases (Homo sapiens, UniProt Q13705).
T10 construct: purchased KINOMEscan (ScanMAX) service
As to conditions: ACVR2B; 1 μM; read-out: % control.

In assay [11] the target is T11, panel of 468 kinases (Homo sapiens, UniProt Q15208).
T11 construct: purchased KINOMEscan (ScanMAX) service
Conditions: NDR1; 1 μM; read-out: % control.

Assay [12] deals with T12, panel of 468 kinases (Homo sapiens, UniProt Q15375).
T12 construct: purchased KINOMEscan (ScanMAX) service
Conditions: EPHA7; 1 μM; read-out: % control.

The target in assay [13] is T13, panel of 468 kinases (Homo sapiens, UniProt Q9H1R3).
T13 construct: purchased KINOMEscan (ScanMAX) service
As to conditions: MYLK2; 1 μM; read-out: % control.

For assay [14], the target named is T14, panel of 468 kinases (Homo sapiens, UniProt Q9P286).
T14 construct: purchased KINOMEscan (ScanMAX) service
Conditions: PAK7; 1 μM; read-out: % control.

Assay [15] addresses T15, panel of 468 kinases (Homo sapiens, UniProt Q9Y6M4).
T15 construct: purchased KINOMEscan (ScanMAX) service
Conditions: CSNK1G3; 1 μM; read-out: % control.

Molecules are shown by their SMILES.

T3 sequence (P0C1S8 whole entry): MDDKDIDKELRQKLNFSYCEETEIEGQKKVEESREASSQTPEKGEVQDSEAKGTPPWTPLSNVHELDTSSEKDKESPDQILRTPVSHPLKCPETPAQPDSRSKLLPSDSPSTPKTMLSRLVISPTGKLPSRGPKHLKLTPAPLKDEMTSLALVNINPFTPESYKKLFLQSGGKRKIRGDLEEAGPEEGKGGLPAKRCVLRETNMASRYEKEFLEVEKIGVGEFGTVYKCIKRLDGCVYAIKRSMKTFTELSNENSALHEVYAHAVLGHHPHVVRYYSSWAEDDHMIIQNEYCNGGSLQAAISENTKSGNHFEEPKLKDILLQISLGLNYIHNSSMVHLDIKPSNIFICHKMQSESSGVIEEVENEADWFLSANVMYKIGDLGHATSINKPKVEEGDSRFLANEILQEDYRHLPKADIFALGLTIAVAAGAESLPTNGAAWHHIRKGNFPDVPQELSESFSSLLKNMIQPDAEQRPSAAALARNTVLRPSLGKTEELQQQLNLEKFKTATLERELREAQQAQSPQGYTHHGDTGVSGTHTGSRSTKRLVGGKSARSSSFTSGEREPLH
T12 sequence (Q15375 28-998): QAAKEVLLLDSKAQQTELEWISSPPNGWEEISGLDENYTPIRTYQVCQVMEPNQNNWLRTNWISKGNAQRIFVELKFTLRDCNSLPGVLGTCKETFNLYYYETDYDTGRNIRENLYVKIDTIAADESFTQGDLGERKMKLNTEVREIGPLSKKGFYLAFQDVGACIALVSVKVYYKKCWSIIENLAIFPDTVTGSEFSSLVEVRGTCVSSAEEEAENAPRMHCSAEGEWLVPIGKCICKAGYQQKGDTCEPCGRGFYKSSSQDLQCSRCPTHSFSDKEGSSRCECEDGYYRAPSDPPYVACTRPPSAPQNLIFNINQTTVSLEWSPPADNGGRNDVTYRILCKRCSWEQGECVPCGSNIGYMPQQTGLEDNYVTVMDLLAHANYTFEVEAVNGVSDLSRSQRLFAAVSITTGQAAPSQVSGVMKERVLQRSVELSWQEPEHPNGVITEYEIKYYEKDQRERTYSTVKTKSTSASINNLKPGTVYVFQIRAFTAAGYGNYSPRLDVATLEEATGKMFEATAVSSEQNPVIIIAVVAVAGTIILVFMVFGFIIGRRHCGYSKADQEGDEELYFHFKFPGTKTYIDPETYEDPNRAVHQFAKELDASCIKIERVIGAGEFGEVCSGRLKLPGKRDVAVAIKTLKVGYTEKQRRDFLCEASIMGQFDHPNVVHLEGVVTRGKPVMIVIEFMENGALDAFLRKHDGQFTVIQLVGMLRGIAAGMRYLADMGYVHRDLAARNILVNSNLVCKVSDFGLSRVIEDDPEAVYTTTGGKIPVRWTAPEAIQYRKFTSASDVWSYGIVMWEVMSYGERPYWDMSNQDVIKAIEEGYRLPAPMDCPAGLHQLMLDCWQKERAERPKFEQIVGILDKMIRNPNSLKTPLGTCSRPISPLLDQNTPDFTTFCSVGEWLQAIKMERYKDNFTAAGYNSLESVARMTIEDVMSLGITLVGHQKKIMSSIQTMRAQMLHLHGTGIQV
T10 sequence (Q13705 19-512): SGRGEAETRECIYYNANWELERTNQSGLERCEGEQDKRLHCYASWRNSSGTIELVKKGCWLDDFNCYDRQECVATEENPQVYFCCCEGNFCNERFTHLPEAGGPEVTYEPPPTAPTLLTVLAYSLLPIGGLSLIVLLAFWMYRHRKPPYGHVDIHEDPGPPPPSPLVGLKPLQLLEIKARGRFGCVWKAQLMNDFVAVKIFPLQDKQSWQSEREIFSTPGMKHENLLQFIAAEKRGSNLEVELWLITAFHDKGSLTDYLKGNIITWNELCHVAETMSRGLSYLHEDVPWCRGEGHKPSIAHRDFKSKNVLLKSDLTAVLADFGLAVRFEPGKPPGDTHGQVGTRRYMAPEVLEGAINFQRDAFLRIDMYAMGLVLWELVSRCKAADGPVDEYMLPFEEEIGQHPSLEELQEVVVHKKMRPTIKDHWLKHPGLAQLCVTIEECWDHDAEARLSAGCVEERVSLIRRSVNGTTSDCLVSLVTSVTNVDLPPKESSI
T13 sequence (Q9H1R3 whole entry): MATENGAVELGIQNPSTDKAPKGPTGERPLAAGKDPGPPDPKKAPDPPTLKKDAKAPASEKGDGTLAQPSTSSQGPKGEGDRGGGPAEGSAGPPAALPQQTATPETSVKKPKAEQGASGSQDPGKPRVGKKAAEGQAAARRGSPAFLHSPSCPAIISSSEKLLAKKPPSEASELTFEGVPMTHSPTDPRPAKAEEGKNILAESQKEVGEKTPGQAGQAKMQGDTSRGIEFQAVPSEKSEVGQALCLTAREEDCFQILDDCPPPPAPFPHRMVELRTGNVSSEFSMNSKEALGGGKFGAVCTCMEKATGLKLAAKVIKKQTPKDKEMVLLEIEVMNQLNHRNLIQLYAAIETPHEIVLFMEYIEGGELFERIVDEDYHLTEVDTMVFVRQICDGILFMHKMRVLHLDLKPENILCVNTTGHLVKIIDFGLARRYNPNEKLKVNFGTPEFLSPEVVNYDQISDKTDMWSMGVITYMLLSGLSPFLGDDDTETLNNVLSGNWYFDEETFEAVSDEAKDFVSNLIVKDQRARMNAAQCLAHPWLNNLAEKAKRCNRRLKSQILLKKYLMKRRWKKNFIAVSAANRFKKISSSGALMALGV
T8 sequence (Q00532 whole entry): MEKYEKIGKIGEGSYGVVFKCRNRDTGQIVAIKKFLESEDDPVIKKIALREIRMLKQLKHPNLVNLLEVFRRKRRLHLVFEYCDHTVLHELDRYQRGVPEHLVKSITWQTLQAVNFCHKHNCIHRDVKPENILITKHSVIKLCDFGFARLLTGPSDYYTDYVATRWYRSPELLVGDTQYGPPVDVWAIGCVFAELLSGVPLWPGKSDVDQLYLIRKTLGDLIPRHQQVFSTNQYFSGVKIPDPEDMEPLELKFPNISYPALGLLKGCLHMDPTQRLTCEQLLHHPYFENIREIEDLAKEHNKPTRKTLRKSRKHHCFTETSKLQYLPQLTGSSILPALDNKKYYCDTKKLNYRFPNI
T5 sequence (P42336 whole entry E545A): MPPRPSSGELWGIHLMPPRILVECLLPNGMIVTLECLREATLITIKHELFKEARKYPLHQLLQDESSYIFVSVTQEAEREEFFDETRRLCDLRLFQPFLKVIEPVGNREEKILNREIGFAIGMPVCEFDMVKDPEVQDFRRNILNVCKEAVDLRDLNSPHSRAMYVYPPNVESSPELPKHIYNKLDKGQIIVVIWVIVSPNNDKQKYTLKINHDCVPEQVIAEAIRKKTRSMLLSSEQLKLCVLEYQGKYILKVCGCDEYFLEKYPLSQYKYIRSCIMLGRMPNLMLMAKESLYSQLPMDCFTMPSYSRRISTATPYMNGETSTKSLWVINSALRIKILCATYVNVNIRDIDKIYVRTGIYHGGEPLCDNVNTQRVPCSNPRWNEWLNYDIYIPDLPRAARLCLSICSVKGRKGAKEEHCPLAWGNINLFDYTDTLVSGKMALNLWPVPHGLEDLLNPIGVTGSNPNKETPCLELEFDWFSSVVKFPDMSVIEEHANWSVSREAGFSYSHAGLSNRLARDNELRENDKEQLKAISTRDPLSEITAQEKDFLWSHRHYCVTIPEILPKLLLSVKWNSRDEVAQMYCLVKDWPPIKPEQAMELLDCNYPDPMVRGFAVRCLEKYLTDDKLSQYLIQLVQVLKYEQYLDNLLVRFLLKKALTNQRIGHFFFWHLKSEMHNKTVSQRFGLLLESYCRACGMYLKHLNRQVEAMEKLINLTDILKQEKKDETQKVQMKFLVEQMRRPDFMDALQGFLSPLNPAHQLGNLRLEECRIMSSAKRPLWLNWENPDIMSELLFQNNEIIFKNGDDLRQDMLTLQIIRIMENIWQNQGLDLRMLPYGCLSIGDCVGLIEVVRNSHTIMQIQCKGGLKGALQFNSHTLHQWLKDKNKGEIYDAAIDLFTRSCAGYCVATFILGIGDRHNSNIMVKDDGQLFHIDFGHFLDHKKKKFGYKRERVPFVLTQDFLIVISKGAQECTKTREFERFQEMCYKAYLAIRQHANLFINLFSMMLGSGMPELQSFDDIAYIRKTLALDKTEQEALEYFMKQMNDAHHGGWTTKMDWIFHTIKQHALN
T6 sequence (P49336 whole entry): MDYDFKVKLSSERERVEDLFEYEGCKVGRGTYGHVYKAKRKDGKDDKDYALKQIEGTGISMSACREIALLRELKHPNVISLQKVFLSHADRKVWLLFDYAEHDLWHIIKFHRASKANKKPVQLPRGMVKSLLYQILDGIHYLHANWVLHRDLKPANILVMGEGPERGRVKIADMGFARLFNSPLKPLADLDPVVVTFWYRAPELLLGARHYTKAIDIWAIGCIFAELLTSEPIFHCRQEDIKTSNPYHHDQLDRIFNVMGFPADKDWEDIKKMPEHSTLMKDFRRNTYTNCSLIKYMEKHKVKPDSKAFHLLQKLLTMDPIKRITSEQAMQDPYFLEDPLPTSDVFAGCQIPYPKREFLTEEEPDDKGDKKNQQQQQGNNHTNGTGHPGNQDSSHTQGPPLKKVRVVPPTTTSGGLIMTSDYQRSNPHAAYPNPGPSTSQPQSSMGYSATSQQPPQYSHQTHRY
T15 sequence (Q9Y6M4 whole entry): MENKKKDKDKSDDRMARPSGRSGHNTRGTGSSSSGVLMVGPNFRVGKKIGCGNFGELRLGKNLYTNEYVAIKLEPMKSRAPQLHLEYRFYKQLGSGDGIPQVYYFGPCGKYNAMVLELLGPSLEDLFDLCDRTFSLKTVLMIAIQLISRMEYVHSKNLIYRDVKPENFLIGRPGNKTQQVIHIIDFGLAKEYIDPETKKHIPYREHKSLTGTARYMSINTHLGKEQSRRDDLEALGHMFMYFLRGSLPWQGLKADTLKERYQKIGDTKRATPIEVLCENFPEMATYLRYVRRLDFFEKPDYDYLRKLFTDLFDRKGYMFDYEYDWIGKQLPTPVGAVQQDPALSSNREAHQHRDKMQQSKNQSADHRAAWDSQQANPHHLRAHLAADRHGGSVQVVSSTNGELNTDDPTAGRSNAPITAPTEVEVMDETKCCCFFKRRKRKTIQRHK

For `CNc1nc(Nc2ccc(S(=O)(=O)N3CCC(N4CCOCC4)CC3)cc2OC)nc2[nH]cc(Cl)c12` [Compound 12, 5-chloro-N2-(2-methoxy-4-((4-morpholinopiperidin-1-yl)sulfonyl)phenyl)-N4-methyl-7H-pyrrolo[2,3-d]pyrimidine-2,4-diamine], the remaining binding at 1 µM at panel of 468 kinases [1] is 90%; on panel of 468 kinases [2], 100%; at panel of 468 kinases [3] it was 100%; on panel of 468 kinases [4], 100%; on panel of 468 kinases [5], 100%; on panel of 468 kinases [6], 100%. The remaining binding at 1 µM at panel of 468 kinases [7] stood at 51%; on panel of 468 kinases [8], 85%; on panel of 468 kinases [9] it was 99%; on panel of 468 kinases [10], 79%; on panel of 468 kinases [11] it was 83%; on panel of 468 kinases [12] it was 100%. Further, the remaining binding at 1 µM was 100% on panel of 468 kinases [13], 100% at panel of 468 kinases [14] and 96% on panel of 468 kinases [15].
Take `CNc1nc(Nc2ccc(C(=O)N3CCC(N4CCOCC4)CC3)c3c2OCO3)nc2[nH]cc(Cl)c12` [Compound 75, (7-((5-chloro-4-(methylamino)-7H-pyrrolo[2,3-d]pyrimidin-2-yl)amino)benzo[d][1,3]dioxol-4-yl)(4-morpholinopiperidin-1-yl)methanone]: the remaining binding at 1 µM on panel of 468 kinases [1] was 99%; on panel of 468 kinases [2] it was 70%; at panel of 468 kinases [3] it was 100%; at panel of 468 kinases [4], 100%; at panel of 468 kinases [5] it was 100%; on panel of 468 kinases [6], 100%. The remaining binding at 1 µM on panel of 468 kinases [7] is 54%; on panel of 468 kinases [8] it was 95%; on panel of 468 kinases [9], 98%; on panel of 468 kinases [10], 95%; at panel of 468 kinases [11], 90%; on panel of 468 kinases [12], 100%. Moreover, the remaining binding at 1 µM at panel of 468 kinases [13] turned out to be 86%; at panel of 468 kinases [14], 97%; at panel of 468 kinases [15] it was 18%.
In the case of `CNc1nc(Nc2ccc(P3(=O)CCN(C4CCOCC4)CC3)cc2OC)nc2[nH]cc(Cl)c12` [Compound 77, 4-(4-((5-chloro-4-(methylamino)-7H-pyrrolo[2,3-d]pyrimidin-2-yl)amino)-3-methoxyphenyl)-1-(tetrahydro-2H-pyran-4-yl)-1,4-azaphosphinane 4-oxide], the remaining binding at 1 µM at panel of 468 kinases [1] was 95%; at panel of 468 kinases [2] it was 100%; on panel of 468 kinases [3], 100%; at panel of 468 kinases [4], 100%; at panel of 468 kinases [5], 100%; at panel of 468 kinases [6], 91%. Besides, the remaining binding at 1 µM on panel of 468 kinases [7] is 52%; at panel of 468 kinases [8] it was 87%; on panel of 468 kinases [9] it was 96%; on panel of 468 kinases [10], 73%; at panel of 468 kinases [11], 83%; at panel of 468 kinases [12] it was 100%. The figures for the remaining binding at 1 µM at panel of 468 kinases [13], at panel of 468 kinases [14] and on panel of 468 kinases [15] were 100%, 100% and 89%, respectively.
